{"source": "patent EP3818828A1", "about": "(priority 2019, dated 2021)", "key": {"Botrytis cinerea": {"system": "Botrytis cinerea", "experiment": "Toxicity determination (EC50) on mycelial growth, growth rate method", "assay_type": "cell-based", "procedure": "(§1) The inhibition of samples for testing on the mycelial growth of plant pathogenic fungi for testing is determined with a growth rate method. 3-(3',4'-methylenedioxy phenyl)-N-n-propyl acrylamide, 3-(3',4'-methylenedioxy phenyl)-piperidine acrylate and five control agents are dissolved with dimethyl sulfoxide (DMSO), then formulated at 5-7 concentrations of different gradients for test following the trial test results, with the same concentration of DMSO as the control solvent, each treatment in triplicate. Fungal cakes with a diameter of 4 mm are taken from the edge of the colony, inoculated into the center of a PDA plate containing different agents of different concentrations and the DMSO control, with one piece of fungal cake inoculated in each plate (with a diameter of […]), and incubated in a constant temperature incubator at a temperature of 22±1.5°C. 7 days later (10-20 days may be needed for some pathogenic fungi), the diameter of the colony is measured with a cross over method according to the mycelial growth profile of the control pathogenic fungi, then the inhibition rate of mycelial growth is calculated.\n(§2) 3-(3',4'-methylenedioxy phenyl)-piperidine acrylate, the control agents 96.5% of chlorothalonil technical and 97.0% of procymidone technical. Agents for testing and the control agents chlorothalonil and procymidone are treated at 5-8 concentrations of different gradients on the basis of preliminary tests to ensure that the inhibition rates for treatments at all the concentrations are between 10% and 90%.\n(§3) For specific determination methods, with reference to Embodiment 1. The concentration of active ingredients in the culture medium is used as the testing concentration to calculate the toxic regression equation (Y=bx+a) and the median inhibition concentration EC50, 95% confidence limit, and relative toxicity. Relative toxicity (compared to chlorothalonil) = EC50 of chlorothalonil / EC50 of 3-(3',4'-methylenedioxy phenyl)-piperidine acrylate, and relative toxicity (compared to procymidone) = EC50 of procymidone / EC50 of 3-(3',4'-methylenedioxy phenyl)-piperidine acrylate."}, "Colletotrichum capsici": {"system": "Colletotrichum capsici", "experiment": "Toxicity determination (EC50) on mycelial growth, growth rate method", "assay_type": "cell-based", "conditions": "for EC50: median inhibition concentration", "procedure": "as §1, §2, §3"}, "Exserohilum turcicum": {"system": "Exserohilum turcicum", "experiment": "Toxicity determination (EC50) on mycelial growth, growth rate method", "assay_type": "cell-based", "conditions": "for EC50: median inhibition concentration", "procedure": "as §1, §2, §3"}, "Sclerotinia sclerotiorum": {"system": "Sclerotinia sclerotiorum", "experiment": "Toxicity determination (EC50) on mycelial growth, growth rate method", "assay_type": "cell-based", "procedure": "as §1, §2, §3"}, "Valsa mali": {"system": "Valsa mali", "experiment": "Toxicity determination (EC50) on mycelial growth, growth rate method", "assay_type": "cell-based", "conditions": "for EC50: median inhibition concentration", "procedure": "as §1, §2, §3"}, "Magnaporthe grisea": {"system": "Magnaporthe grisea", "experiment": "microbe, parasite or virus in culture", "assay_type": "cell-based", "conditions": "for EC50: median inhibition concentration"}, "[1]": {"system": "damping-off (P. aphanidermatum, P.capsici)", "experiment": "In-vivo greenhouse control of damping-off of peppers", "conditions": "Pepper; sick soil; 0.80 mg/mL (active ingredients)", "procedure": "3.88 g of 3-(3',4'-methylenedioxy phenyl)-N-n-propyl acrylamide was weighed and dissolved in 25 g of absolute ethyl alcohol, then 6 g of emulsifier 0203B was added, and mixed uniformly with stirring to get 10% of 3-(3',4'-methylenedioxy phenyl)-N-n-propyl acrylamide EC.\n(§4) 5.61 g of 3-(3',4'-methylenedioxy phenyl)-piperidine acrylate was weighed and dissolved in 25 g of absolute ethyl alcohol, then 6 g of emulsifier 0203B was added, and mixed uniformly with stirring to get 14% of 3-(3',4'-methylenedioxy phenyl)-piperidine acrylate EC.\nSick soil of damping-off (P. aphanidermatum, P.capsici) was collected from the fields of tomatoes, eggplants and peppers in a solar greenhouse, and mixed evenly in equal proportion. Tomatoes (Variety: Song Tian Fen Yang Yang, 100 grains), eggplants (Variety: Lanza No. 2 F1 long eggplant, 100 grains), pepper (Longjiao No. 2 F1, 100 grains) were seeded quantitatively with the sick soil in pots (diameter: 15 cm) in a greenhouse, additionally with sterile vermiculite as the control (each 100 grains for determining the germination rate). […] Mortality of seedlings was investigated after the seedlings had grown 2 true leaves, and the control effect of each treatment on damping-off was calculated. […]"}, "Leveillula taurica": {"system": "Leveillula taurica", "experiment": "In-vivo greenhouse control of pepper powdery mildew", "procedure": "as §4\nPepper seedling (Variety: Bell pepper) was carried out in a greenhouse, and the seedlings were transplanted into pots, 3 for each pot. Sick leaves of powdery mildew (Leveillula taurica) were harvested form peppers (Longjiao No. 2) in a solar greenhouse in Jingyuan County, Baiyin City, and formulated into a spore suspension of powdery mildew. Both sides of the pepper leaves were sprayed evenly with a small hand-held sprayer and inoculated. The first application was started at the early onset of powdery mildew. 14% of 3-(3',4'-methylenedioxy phenyl)-piperidine acrylate EC was diluted at four concentrations of 1.00, 0.667, 0.50 and 0.40 mg/mL (active ingredients); the control agent, 12.5% of myclobutanil EC, was diluted at a concentration of 0.063 mg/mL (active ingredients); additionally clear water was used as the control. The instrument for application is a small hand-held sprayer. Both sides of the leaves were sprayed evenly so that the leaves were wetted by the liquor without loss. Applications were conducted every 7 days consecutively for 3 times. 10 days after the third application, the disease extent of powdery mildew in the upper, middle and lower 3 leaves of each plant was investigated, to calculate the disease index and the control effect."}, "[2]": {"conditions": "EC50 of chlorothalonil / EC50 of agent"}, "[3]": {"conditions": "EC50 of procymidone / EC50 of agent"}, "[4]": {"conditions": "median inhibition concentration"}}, "note": "Read-outs that look alike come from different tables or passages of the source."}
{"smiles": "O=C(/C=C/c1ccc2c(c1)OCO2)N1CCCCC1", "note": "[3-(3',4'-methylenedioxyphenyl)-piperidine acrylate]", "values": [{"measurement": "Relative Toxicity (Compared to Chlorothalonil)", "setting": "Botrytis cinerea; [2]", "value": 0.84}, {"measurement": "Relative Toxicity (Compared to Procymidone)", "setting": "Botrytis cinerea; [3]", "value": 0.37}, {"measurement": "EC50", "setting": "Botrytis cinerea; [4]", "value": 212, "unit": "µg/mL"}, {"measurement": "EC50", "setting": "Colletotrichum capsici; Colletotrichum truncatum, read-out: EC50", "value": 130, "unit": "µg/mL"}, {"measurement": "Relative Toxicity (Compared to Chlorothalonil)", "setting": "Colletotrichum capsici; [2]", "value": 3.23}, {"measurement": "Relative Toxicity (Compared to Procymidone)", "setting": "Colletotrichum capsici; [3]", "value": 4.13}, {"measurement": "EC50", "setting": "Colletotrichum capsici; listed as 66#", "value": 125.3, "unit": "µg/mL"}, {"measurement": "Relative Toxicity (Compared to Chlorothalonil)", "setting": "Exserohilum turcicum; [2]", "value": 3.21}, {"measurement": "Relative Toxicity (Compared to Procymidone)", "setting": "Exserohilum turcicum; [3]", "value": 0.82}, {"measurement": "EC50", "setting": "Exserohilum turcicum; listed as 66#", "value": 128.1, "unit": "µg/mL"}, {"measurement": "EC50", "setting": "Exserohilum turcicum; read-out: EC50", "value": 130, "unit": "µg/mL"}, {"measurement": "Relative Toxicity (Compared to Chlorothalonil)", "setting": "Sclerotinia sclerotiorum; [2]", "value": 0.28}, {"measurement": "Relative Toxicity (Compared to Procymidone)", "setting": "Sclerotinia sclerotiorum; [3]", "value": 0.31}, {"measurement": "EC50", "setting": "Sclerotinia sclerotiorum; [4]", "value": 227, "unit": "µg/mL"}, {"measurement": "EC50", "setting": "Valsa mali; Cytospora mali, read-out: EC50", "value": 90, "unit": "µg/mL"}, {"measurement": "Relative Toxicity (Compared to Chlorothalonil)", "setting": "Valsa mali; [2]", "value": 4.68}, {"measurement": "Relative Toxicity (Compared to Procymidone)", "setting": "Valsa mali; [3]", "value": 4.78}, {"measurement": "EC50", "setting": "Valsa mali; listed as 66#", "value": 89.4, "unit": "µg/mL"}, {"measurement": "Relative Toxicity (Compared to Chlorothalonil)", "setting": "Magnaporthe grisea; [2]", "value": 2.45}, {"measurement": "Relative Toxicity (Compared to Procymidone)", "setting": "Magnaporthe grisea; [3]", "value": 1.73}, {"measurement": "EC50", "setting": "Magnaporthe grisea; Pyricularia oryzae", "value": 180, "unit": "µg/mL"}, {"measurement": "EC50", "setting": "Magnaporthe grisea; listed as 66#", "value": 177.6, "unit": "µg/mL"}, {"measurement": "Control Effect", "setting": "[1]", "value": 67.71, "unit": "%"}, {"measurement": "Control Effect", "setting": "Leveillula taurica; 0.50 mg/mL", "value": 75.56, "unit": "%"}, {"measurement": "Control Effect", "setting": "Leveillula taurica; 0.667 mg/mL", "value": 84.56, "unit": "%"}, {"measurement": "Control Effect", "setting": "Leveillula taurica; 1.00 mg/mL", "value": 100, "unit": "%"}]}
